Measurements: US7897636B2, “Sulfamide derivative useful for the treatment of epilepsy” (Janssen Pharmaceutica NV, priority 2007, dated 2011)

Test system: MES-induced seizure
Experiment: Maximal Electroshock Test (MES), anticonvulsant activity
Format: in vivo, CF-1 male albino mice
Experimental: Anticonvulsant activity was determined using the MES test, run according to the procedure described in detail below. Swinyard E A, Woodhead J H, White H S, Franklin M R. Experimental selection, quantification, and evaluation of anticonvulsants. In Levy R H, et al., eds. Antiepileptic Drugs. 3rd ed. New York: Raven Press, 1989:85-102 CF-1 male albino mice (25-35 g) were randomly selected into control and test groups, with the animals dosed with vehicle or test compound, at varying time-points and concentrations, respectively. On the study date, the mice were dosed by intraperitoneal (i.p.) injection with vehicle (30% Solutol) or test compound (50-250 mg/kg). Seizures were induced by trans-corneal electric shock using a 60-Hz alternating current, 50 mA, delivered for 0.2 sec. The mice in the test groups were subjected to electrical stimulus at time intervals between 15 minutes and 4 hours following administration of test compound. […] The test was complete when the entire course of the convulsion has been observed (typically, less than 1 minute after electrical stimulation). […] The ED50 value of the test compounds was the calculated dose required to block the hind limb tonic-extensor component of the MES-induced seizure in 50% of the rodents tested. […] Representative compounds of the present invention were tested according to the procedure described above, with results as listed in Table 1 below. Results are listed as (number of mice with full body tonic extension prevented)/(total number of mice tested) (@ a given time). ED50 values were determined at the time of peak effect (1 hr, Table 1).

[1] = 100 mg/kg i.p., 1.0 Hrs after dosing
[2] = 100 mg/kg i.p., 2 Hrs after dosing
[3] = 200 mg/kg i.p., 0.25 Hrs after dosing
[4] = 200 mg/kg i.p., 0.50 Hrs after dosing
[5] = 200 mg/kg i.p., 1.0 Hrs after dosing
[6] = 200 mg/kg i.p., 2 Hrs after dosing
[7] = 200 mg/kg i.p., 4 Hrs after dosing

`NS(=O)(=O)NCc1c[s+]([O-])c2ccccc12` (single isomer, unassigned; (-)) [(−)-enantiomer, N-[(1-oxidobenzo[b]thien-3-yl)methyl]-sulfamide] was tested, and the “MES Activity: (number of mice with full body tonic extension prevented)/(total number of mice tested)” value (“MES Activity” below) [1] was 2/4, the “MES Activity” value [2] was 1/4 and the “MES Activity” value [3] was 1/4. The “MES Activity” value [4] was 2/5, the “MES Activity” value [5] was 5/5 and the “MES Activity” value [6] was 5/5. For the same compound, the “MES Activity” value [7] was 1/5.
`NS(=O)(=O)NCc1c[s+]([O-])c2ccccc12` (single isomer, unassigned; (+)) [(+)-enantiomer, N-[(1-oxidobenzo[b]thien-3-yl)methyl]-sulfamide] was tested, and the “MES Activity” value [1] was 1/4, the “MES Activity” value [2] was 0/4 and the “MES Activity” value [3] was 0/3. For the same compound, the “MES Activity” value [4] was 4/5, the “MES Activity” value [5] was 5/5 and the “MES Activity” value [6] was 5/5. For the same compound, the “MES Activity” value [7] was 1/5 and the ED50 (Mus musculus, ip, 1 h, mice, i.p., at time of peak effect (1 hr), probit analysis, read-out: ED50 (dose required to block the hind limb tonic-extensor component of the MES-induced seizure in 50% of the rodents)) was 127 mg/kg.
